Data published in patent publication US10293148B2, “System, retainer and method of preventing and treating nosocomial infections including methicillin-resistant Staphylococcus aureus infections” (priority 2017, dated 2019).

Tested on: S. epidermidis ATCC 12228
Test: ASTM E1153 sanitizer test on inoculated glass carriers
Type: cell-based, staphylococcus epidermidis
Procedure: As used herein, “CFU” refers to “colony forming unit;” the term “Log Reduction” means Log(B/A), where B=the colony form unit (CFU) number of viable test microorganisms on the control carriers after the contact time and A=the colony form unit (CFU) number of viable test microorganisms on the test carriers after the contact time. All log numbers are base-10 logarithms. […] The experiment was conducted pursuant to the American Society for Testing and Materials (ASTM) E1153, a quantitative test method designed to substantiate sanitizer claims for disinfectants on inanimate, non-porous, non-food contact surfaces. […] The commercial acne products were categorized based on their identified disinfecting ingredient. The representative test microorganism used to conduct the study was staphylococcus epidermidis (“S. epidermidis”). S. epidermidis is a gram-positive, cocci-shaped, facultative anaerobe, living mainly on the skin's surface and mucosa. S. epidermidis is one of the most common organisms contributing to nosocomial infections due to the increase in medical usage of biomaterials. Specifically, S. epidermidis infections are associated with intravascular devices (prosthetic heart valves, shunts, etc.), prosthetic joints, catheters, and postoperative wounds and the urinary tract. […] The ASTM […] protocol includes growing the test microorganism in a liquid culture medium. A series of hard, non-porous glass slides (“carriers”) are inoculated with the representative test microorganisms, and subsequently dried in an incubator. ASTM […] utilizes non-antimicrobial agents as controls to establish baselines for microbial reductions. For this study, each inoculation area was kept to a 10 mm circle to match the output tip of the […] light source. Once completely dried, the inoculated test carriers were treated with the test substances and incubated for the predetermined contact time. […] Each […] light source was set to the high power setting for testing. Control carriers were treated with a buffered saline solution and allowed to sit for the predetermined contact time. At the conclusion of the contact time, treated carriers were transferred to vessels containing neutralizing media. Dilutions of the neutralized test substance were assayed for microbial survivors using appropriate growth media. To determine microbial reduction, the effect of the test substance is compared to the effect of the control substance. […] The percent reduction is determined by evaluating the number of microorganisms on the control carriers after the contact time with the number of viable microorganisms on the test carriers after contact time.

[1] = stand-alone, no light, contact time 10 Seconds, Initial Numbers 1.4E+05
[2] = stand-alone, no light, contact time 20 Seconds, Initial Numbers 1.4E+05
[3] = stand-alone, no light, contact time 30 Seconds, Initial Numbers 1.4E+05
[4] = with Synederm Light (385-515 nm), contact time 10 Seconds, Numbers Control 2.97E+05
[5] = with Synederm Light (385-515 nm), contact time 30 Seconds, Numbers Control 2.97E+05
[6] = with Synederm Light (385-515 nm), contact time 60 Seconds, Numbers Control 2.97E+05
[7] = with Synederm Light (420-480 nm), contact time 10 Seconds, Numbers Control 2.97E+05
[8] = with Synederm Light (420-480 nm), contact time 30 Seconds, Numbers Control 2.97E+05
[9] = with Synederm Light (420-480 nm), contact time 60 Seconds, Numbers Control 2.97E+05
[10] = with Synederm Light (385-515 nm), contact time 10 Seconds, Numbers Control 2.97E+05, listed as 3.0% Hydrogen Peroxide
[11] = with Synederm Light (385-515 nm), contact time 30 Seconds, Numbers Control 2.97E+05, listed as 3.0% Hydrogen Peroxide
[12] = with Synederm Light (385-515 nm), contact time 60 Seconds, Numbers Control 2.97E+05, listed as 3.0% Hydrogen Peroxide
[13] = with Synederm Light (420-480 nm), contact time 10 Seconds, Numbers Control 2.97E+05, listed as 3.0% Hydrogen Peroxide
[14] = with Synederm Light (420-480 nm), contact time 30 Seconds, Numbers Control 2.97E+05, listed as 3.0% Hydrogen Peroxide
[15] = with Synederm Light (420-480 nm), contact time 60 Seconds, Numbers Control 2.97E+05, listed as 3.0% Hydrogen Peroxide

OO [0.3% Hydrogen Peroxide, hydrogen peroxide]
CFU/Carrier [1]: 8.3E+04 CFU/Carrier
Log10 Reduction Compared to Control [1]: 0.23 Log10
Percent Reduction Compared to Control [1]: 40.7%
CFU/Carrier [2]: 7.50E+04 CFU/Carrier
Log10 Reduction Compared to Control [2]: 0.27 Log10
Percent Reduction Compared to Control [2]: 46.4%
CFU/Carrier [3]: 1.20E+05 CFU/Carrier
Log10 Reduction Compared to Control [3]: 0.07 Log10
Percent Reduction Compared to Control [3]: 14.3%
CFU/Carrier [4]: 7.58E+4 CFU/Carrier
Log10 Reduction Compared to Control [4]: 0.59 Log10
Percent Reduction Compared to Control [4]: 74.4%
CFU/Carrier [5]: 3.66E+04 CFU/Carrier
Log10 Reduction Compared to Control [5]: 0.91 Log10
Percent Reduction Compared to Control [5]: 87.7%
CFU/Carrier [6]: 9.10E+03 CFU/Carrier
Log10 Reduction Compared to Control [6]: 1.51 Log10
Percent Reduction Compared to Control [6]: 96.9%
CFU/Carrier [7]: 1.30E+05 CFU/Carrier
Log10 Reduction Compared to Control [7]: 0.36 Log10
Percent Reduction Compared to Control [7]: 56.2%
CFU/Carrier [8]: 1.30E+05 CFU/Carrier
Log10 Reduction Compared to Control [8]: 0.36 Log10
Percent Reduction Compared to Control [8]: 56.3%
CFU/Carrier [9]: 2.28E+04 CFU/Carrier
Log10 Reduction Compared to Control [9]: 1.11 Log10
Percent Reduction Compared to Control [9]: 92.3%

OO [3% Hydrogen Peroxide, hydrogen peroxide]
CFU/Carrier [1]: 7.50E+04 CFU/Carrier
Log10 Reduction Compared to Control [1]: 0.27 Log10
Percent Reduction Compared to Control [1]: 46.4%
CFU/Carrier [2]: 8.00E+04 CFU/Carrier
Log10 Reduction Compared to Control [2]: 0.24 Log10
Percent Reduction Compared to Control [2]: 42.9%
CFU/Carrier [3]: 6.30E+04 CFU/Carrier
Log10 Reduction Compared to Control [3]: 0.35 Log10
Percent Reduction Compared to Control [3]: 55%
CFU/Carrier [10]: 5.80E+04 CFU/Carrier
Log10 Reduction Compared to Control [10]: 0.71 Log10
Percent Reduction Compared to Control [10]: 80.4%
CFU/Carrier [11]: 1.34E+03 CFU/Carrier
Log10 Reduction Compared to Control [11]: 2.34 Log10
Percent Reduction Compared to Control [11]: 99.5%
CFU/Carrier [12]: <1.00E+01 CFU/Carrier
Log10 Reduction Compared to Control [12]: >4.55 Log10
Percent Reduction Compared to Control [12]: >99.997%
CFU/Carrier [13]: 2.19E+04 CFU/Carrier
Log10 Reduction Compared to Control [13]: 1.13 Log10
Percent Reduction Compared to Control [13]: 92.6%
CFU/Carrier [14]: 6.20E+03 CFU/Carrier
Log10 Reduction Compared to Control [14]: 1.68 Log10
Percent Reduction Compared to Control [14]: 97.9%
CFU/Carrier [15]: <1.00E+01 CFU/Carrier
Log10 Reduction Compared to Control [15]: >4.55 Log10
Percent Reduction Compared to Control [15]: >99.997%
ASTM International passing criteria (3 Log10 or 99.9% reduction) (with Synederm light (385-515nm) for 60 seconds): satisfied the ASTM International passing criteria
ASTM International passing criteria (3 Log10 or 99.9% reduction) (with Synederm light (420-480nm) for 60 seconds): satisfied the ASTM International passing criteria
